Measurements: US10913727B2, “Modulators of the integrated stress pathway” (Calico Life Sciences LLC, priority 2016, dated 2021)

System: HEK293T cells carrying the ATF4 luciferase reporter
Test: ATF4-Luc assay, in vitro model of Vanishing Cell White Matter Disease (VWMD)
Type: cell-based
Conditions: Homo sapiens, HEK-293T, 1 μg/mL tunicamycin, 7 hours, One Glo luminescence
Outline: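 Compound at 200 nM and tunicamycin at 1 μg/mL were given together for 7 h to HEK293T cells stably transduced with an ATF4 5′-UTR-driven firefly luciferase reporter. Read-out by luminescence, reported as EC50.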

| Compound | EC50 [nM] |
| --- | --- |
| O=C(COc1ccc(Cl)c(F)c1)NC12CC(NC(=O)c3ncccc3Cl)(C1)C2 [Compound 899, 3-chloro-N-{3-[2-(4-chloro-3-fluorophenoxy)acetamido]bicyclo[1.1.1]pentan-1-yl}pyridine-2-carboxamide] | 250 to 1000 |
| Cc1cc(C(=O)N(C)C23CC(NC(=O)COc4ccc(Cl)c(F)c4)(C2)C3)on1 [Compound 355, N-{3-[2-(4-chloro-3-fluorophenoxy)acetamido]bicyclo[1.1.1]pentan-1-yl}-N,3-dimethyl-1,2-oxazole-5-carboxamide] | 1000 to 2000 |
| O=C(COc1ccc(Cl)c(F)c1)NC12CC(NC(=O)c3noc4c3CCCC4)(C1)C2 [Compound 880, N-{3-[2-(4-chloro-3-fluorophenoxy)acetamido]bicyclo[1.1.1]pentan-1-yl}-4,5,6,7-tetrahydro-1,2-benzoxazole-3-carboxamide] | > 2000 |
| COc1c(F)cccc1C(=O)NC12CC(NC(=O)COc3ccc(Cl)c(F)c3)(C1)C2 [Compound 547, N-{3-[2-(4-chloro-3-fluorophenoxy)acetamido]bicyclo[1.1.1]pentan-1-yl}-3-fluoro-2-methoxybenzamide] | 1000 to 2000 |
| CCc1ccnc(C(=O)NC23CCC(NC(=O)COc4ccc(Cl)c(F)c4)(CC2)C(O)C3)c1 (stereo not drawn) [Compound 918, N-{4-[2-(4-chloro-3-fluorophenoxy)acetamido]-3-hydroxybicyclo[2.2.2]octan-1-yl}-4-ethylpyridine-2-carboxamide] | 250 to 1000 |
| Cn1nc2ccccc2c1C(=O)NC12CC(NC(=O)COc3ccc(Cl)c(F)c3)(C1)C2 [Compound 896, N-{3-[2-(4-chloro-3-fluorophenoxy)acetamido]bicyclo[1.1.1]pentan-1-yl}-2-methyl-2H-indazole-3-carboxamide] | 1000 to 2000 |
| O=C(COc1ccc(Cl)c(F)c1)NC12CC(NC(=O)c3ccccn3)(C1)C2 [Compound 129, N-{3-[2-(4-chloro-3-fluorophenoxy)acetamido]bicyclo[1.1.1]pentan-1-yl}pyridine-2-carboxamide] | 50 to 250 |
| O=C(COc1ccc(Cl)c(F)c1)NC12CC(NC(=O)c3cnc4[nH]ncc4c3)(C1)C2 [Compound 608, N-{3-[2-(4-chloro-3-fluorophenoxy)acetamido]bicyclo[1.1.1]pentan-1-yl}-1H-pyrazolo[3,4-b]pyridine-5-carboxamide] | 50 to 250 |
| O=C(COc1ccc(Cl)c(F)c1)NC12CCC(NC(=O)c3ccc(C(F)(F)F)nc3)(CC1)C(F)C2 (stereo not drawn) [Compound 372, N-{4-[2-(4-chloro-3-fluorophenoxy)acetamido]-2-fluorobicyclo[2.2.2]octan-1-yl}-6-(trifluoromethyl)pyridine-3-carboxamide] | 250 to 1000 |
| O=C(COc1ccc(Cl)c(Cl)c1)NC12CC(NC(=O)c3ccc(Cl)c(F)c3)(C1)C2 [Compound 685, 4-chloro-N-{3-[2-(3,4-dichlorophenoxy)acetamido]bicyclo[1.1.1]pentan-1-yl}-3-fluorobenzamide] | < 50 |
| Cn1nccc1C(=O)NC12CCC(NC(=O)COc3ccc(Cl)c(F)c3)(CC1)C(O)C2 (stereo not drawn) [Compound 602, N-{4-[2-(4-chloro-3-fluorophenoxy)acetamido]-3-hydroxybicyclo[2.2.2]octan-1-yl}-1-methyl-1H-pyrazole-5-carboxamide] | 250 to 1000 |
| O=C(COc1ccc(Cl)c(F)c1)NC12CC(NC(=O)c3cc(O)ccn3)(C1)C2 [Compound 183, N-{3-[2-(4-chloro-3-fluorophenoxy)acetamido]bicyclo[1.1.1]pentan-1-yl}-4-hydroxypyridine-2-carboxamide] | 1000 to 2000 |
| O=C(COc1ccc(Cl)c(F)c1)NC12CC(NC(=O)c3cnc(-c4ccc(Cl)c(F)c4)o3)(C1)C2 [Compound 105, N-{3-[2-(4-chloro-3-fluorophenoxy)acetamido]bicyclo[1.1.1]pentan-1-yl}-2-(4-chloro-3-fluorophenyl)-1,3-oxazole-5-carboxamide] | < 50 |
| Cc1ncc(C(=O)NC23CC(NC(=O)COc4ccc(Cl)c(Cl)c4)(C2)C3)o1 [Compound 675, N-{3-[2-(3,4-dichlorophenoxy)acetamido]bicyclo[1.1.1]pentan-1-yl}-2-methyl-1,3-oxazole-5-carboxamide] | 50 to 250 |
| O=C(COc1ccc(Cl)c(F)c1)NC12CC(NC(=O)c3cscn3)(C1)C2 [Compound 308, N-{3-[2-(4-chloro-3-fluorophenoxy)acetamido]bicyclo[1.1.1]pentan-1-yl}-1,3-thiazole-4-carboxamide] | 250 to 1000 |
| Cc1csc(C(=O)NC23CCC(NC(=O)COc4ccc(Cl)c(F)c4)(CC2)C(O)C3)c1 (stereo not drawn) [Compound 622, N-{4-[2-(4-chloro-3-fluorophenoxy)acetamido]-3-hydroxybicyclo[2.2.2]octan-1-yl}-4-methylthiophene-2-carboxamide] | < 50 |
| O=C(COc1ccc(Cl)c(F)c1)NC12CCC(NC(=O)c3ccccn3)(CC1)[C@@H](O)C2 [Compound 588, N-{(2S)-4-[2-(4-chloro-3-fluorophenoxy)acetamido]-2-hydroxybicyclo[2.2.2]octan-1-yl}pyridine-2-carboxamide] | < 50 |

| Compound | EC50 [nM] |
| --- | --- |
| O=C(COc1ccc(Cl)c(F)c1)NC12CC(NC(=O)c3ccon3)(C1)C2 [Compound 820, N-{3-[2-(4-chloro-3-fluorophenoxy)acetamido]bicyclo[1.1.1]pentan-1-yl}-1,2-oxazole-3-carboxamide] | > 2000 |
| Cc1cnc2c(C(=O)NC34CC(NC(=O)COc5ccc(Cl)c(F)c5)(C3)C4)cnn2c1 [Compound 806, N-{3-[2-(4-chloro-3-fluorophenoxy)acetamido]bicyclo[1.1.1]pentan-1-yl}-6-methylpyrazolo[1,5-a]pyrimidine-3-carboxamide] | > 2000 |
| O=C(COc1ccc(Cl)c(F)c1)NC12CC(Nc3nccc(-c4cnn(C(F)F)c4)n3)(C1)C2 [Compound 382, 2-(4-chloro-3-fluorophenoxy)-N-[3-({4-[1-(difluoromethyl)-1H-pyrazol-4-yl]pyrimidin-2-yl}amino)bicyclo[1.1.1]pentan-1-yl]acetamide] | > 2000 |
| O=C(COc1ccc(Cl)c(F)c1)NC12CCC(NC(=O)c3cccnc3)(C1)C2 [Compound 477, N-{4-[2-(4-chloro-3-fluorophenoxy)acetamido]bicyclo[2.1.1]hexan-1-yl}pyridine-3-carboxamide] | 1000 to 2000 |
| Cc1nc(C(F)(F)F)c(C(=O)NC23CC(NC(=O)COc4ccc(Cl)c(F)c4)(C2)C3)s1 [Compound 837, N-{3-[2-(4-chloro-3-fluorophenoxy)acetamido]bicyclo[1.1.1]pentan-1-yl}-2-methyl-4-(trifluoromethyl)-1,3-thiazole-5-carboxamide] | > 2000 |
| O=C(COc1ccc(Cl)c(F)c1)NC12CCC(NC(=O)c3ccc(-c4ccc(F)cc4)cn3)(CC1)CC2O (stereo not drawn) [Compound 939, N-{4-[2-(4-chloro-3-fluorophenoxy)acetamido]-3-hydroxybicyclo[2.2.2]octan-1-yl}-5-(4-fluorophenyl)pyridine-2-carboxamide] | > 2000 |
| O=C(COc1ccc(Cl)c(F)c1)NC12CCC(NC(=O)c3cccs3)(CC1)CC2O (stereo not drawn) [Compound 611, N-{4-[2-(4-chloro-3-fluorophenoxy)acetamido]-3-hydroxybicyclo[2.2.2]octan-1-yl}thiophene-2-carboxamide] | < 50 |
| O=C(COc1ccc(Cl)c(F)c1)NC12CC(NC(=O)c3cccc(CO)c3)(C1)C2 [Compound 419, N-{3-[2-(4-chloro-3-fluorophenoxy)acetamido]bicyclo[1.1.1]pentan-1-yl}-3-(hydroxymethyl)benzamide] | 250 to 1000 |
| Cc1nn(C)c2ncnc(NC34CC(NC(=O)COc5ccc(Cl)c(F)c5)(C3)C4)c12 [Compound 435, 2-(4-chloro-3-fluorophenoxy)-N-{3-[(1,3-dimethyl-1H-pyrazolo[3,4-d]pyrimidin-4-yl)amino]bicyclo[1.1.1]pentan-1-yl}acetamide] | > 2000 |
| CCCOc1ccc(C(=O)NC23CC(NC(=O)COc4ccc(Cl)c(F)c4)(C2)C3)cc1 [Compound 316, N-{3-[2-(4-chloro-3-fluorophenoxy)acetamido]bicyclo[1.1.1]pentan-1-yl}-4-propoxybenzamide] | 50 to 250 |
| Cc1cc2c(NC34CC(NC(=O)COc5cccc(OC(F)(F)F)c5)(C3)C4)nccn2n1 [Compound 424, N-{3-[(2-methylpyrazolo[1,5-a]pyrazin-4-yl)amino]bicyclo[1.1.1]pentan-1-yl}-2-[3-(trifluoromethoxy)phenoxy]acetamide] | 1000 to 2000 |
| O=C(COc1ccc(Cl)c(Cl)c1)NC12CCC(NC(=O)c3cnc(-c4ccc(Cl)c(F)c4)o3)(C1)C2 [Compound 110, 2-(4-chloro-3-fluorophenyl)-N-{4-[2-(3,4-dichlorophenoxy)acetamido]bicyclo-[2.1.1]hexan-1-yl}-1,3-oxazole-5-carboxamide] | 50 to 250 |
| Cc1cncc(C(=O)NC23CC(NC(=O)COc4ccc(Cl)c(F)c4)(C2)C3)c1 [Compound 644, N-{3-[2-(4-chloro-3-fluorophenoxy)acetamido]bicyclo[1.1.1]pentan-1-yl}-5-methylpyridine-3-carboxamide] | 50 to 250 |
| O=C(COc1ccc(Cl)c(F)c1)NC12CCC(NC(=O)c3cnc(C(F)F)cn3)(CC1)CC2O (stereo not drawn) [Compound 229, N-{4-[2-(4-chloro-3-fluorophenoxy)acetamido]-3-hydroxybicyclo[2.2.2]octan-1-yl}-5-(difluoromethyl)pyrazine-2-carboxamide] | 50 to 250 |
| O=C(COc1ccc(Cl)c(F)c1)NC12CCC(NC(=O)c3csc(C(F)(F)F)n3)(CC1)CC2O (stereo not drawn) [Compound 466, N-{4-[2-(4-chloro-3-fluorophenoxy)acetamido]-3-hydroxybicyclo[2.2.2]octan-1-yl}-2-(trifluoromethyl)-1,3-thiazole-4-carboxamide] | < 50 |
| CCc1ccc(C(=O)NC23CC(NC(=O)COc4ccc(Cl)c(F)c4)(C2)C3)o1 [Compound 250, N-{3-[2-(4-chloro-3-fluorophenoxy)acetamido]bicyclo[1.1.1]pentan-1-yl}-5-ethylfuran-2-carboxamide] | < 50 |
